Results from patent US11440870B2, “Cannabidiolic acid esters compositions and uses thereof” (Yissum Research Development Company of the Hebrew …, priority 2017, dated 2022).

Tested on: anxiety-like responding in rats
Test: Light-dark box emergence test after foot shock stress (anxiety-like responding)
Assay type: in vivo, male Sprague-Dawley rats
Settings: WAY100635 i.p. 15 min before VEH; P<0.05
From the text: Animal procedures complied with the Canadian Council on Animal Care, and the protocols were approved by the Institutional Animal Care Committee at University of Guelph. Animal studies are reported in compliance with the ARRIVE guidelines (Kilkenny et al., 2010; McGrath and Lilley, 2015). A total of 200 näive male Sprague-Dawley rats, obtained from Charles River Laboratories (St Constant, Quebec), were used for all in vivo studies. Rats were individually housed (for acute nausea studies) or pair-housed [for anticipatory nausea and light-dark emergence studies] in home cages made of opaque white plastic (48×26×20 cm), containing bed-o-cob bedding from Harlan Laboratories, Inc. (Mississauga, Ontario), a brown paper towel, and Crinkl'Nest™ from The Andersons, Inc. (Maumee, Ohio). Additionally, in the home cage, rats were provided with a soft white paper container that was 14 cm long and 12 cm in diameter. All rats were subjected to an ambient temperature of 21° C. and a 12/12 h light-dark schedule (lights off at 07:00 h) and maintained on food (Highland Rat Chow [8640]) and water ad libitum. For the acute and anticipatory nausea studies, their body weights ranged from 263 to 329 g on the day of conditioning. For the light-dark emergence studies, their body weights ranged from 320 to 387 g on the day of test.
For the in vivo experiment 3, anxiolytic-like responding was evaluated using the light-dark emergence apparatus, which consisted of an opaque white plastic rectangular box that was divided into two compartments: a small (25 cm wide×20.5 cm long×20.5 cm high) enclosed dark box built of opaque black plastic with a door (8 cm wide×10 cm high) leading to a larger (39.5 cm long×25 cm wide) open lit box. The open lit box was illuminated by one lamp (with a 60 W bulb, 180 lux in the light chamber) positioned 115 cm above the center of the lit box. A video camera was mounted over the top of the light-dark box, and the video tapes were analyzed by the Ethovision software (Noldus Information Technology, Leesburg, Va., USA) for the duration of time spent in the light box for the 5 min test. For the foot shock (FS) session, the rats were placed in sound attenuating MED Associates fear conditioning chambers (St. Albans, Vt., USA). The 6 min FS session consisted of six 0.8 mA foot shocks delivered 1 min apart. Each 0.5 s shock was preceded by a 30 s auditory tone (90 Db, 5000 Hz) as described by Bluett et al. (2014).
The effect of CBDA and HU-580 on anxiety-like responding was evaluated using the light-dark box emergence test following either foot shock stress or no foot shock (No FS) stress. […]

## COc1ccccc1N1CCN(CCN(C(=O)C2CCCCC2)c2ccccn2)CC1 [WAY100635, reference compound]
  Time spent in the light box after foot shock (FS) stress vs No FS: spent less time in the light box following FS stress than following No FS stress
